# Patent publication US20250360143A1, “COMPOSITIONS AND METHODS FOR PHA[…] OF STROKE AND […] REPERFUSION INJURY” (priority 2022, published 2025)
# Entries after “also recorded” stand apart in the source; their conditions may differ. Where a name gives a salt, the structure may show the parent alone. Read-outs that look alike come from different tables or passages of the source.
# Columns and labels:
# [1] = system: C57B/6 mice, transient focal cerebral ischemia (MCAo); conditions: 1 mg/kg/day for 3 days from onset of acute stroke; previously shown; cited from earlier work
# [2] = system: C57B/6 mice, transient focal cerebral ischemia (MCAo); conditions: mouse, in vivo
# [3] = system: 45 receptors, channels and transporters; assay: Off-target binding at 45 receptors, channels and transporters (NIMH PDSP); conditions: at 10 μM
# [4] = system: middle-aged mice after MCAo; conditions: dose 3 mg/kg; four weeks after MCAo; vs Veh; listed as MRS 4719, 3 mg/kg
# D3 dopamine receptor = molecular target: T1, D3 dopamine receptor (Homo sapiens, UniProt P35462); assay: Off-target binding, NIMH Psychoactive Drug Screening program; conditions: read-out: inhibition of binding at D3 dopamine receptor
# T1 construct: NIMH Psychoactive Drug Screening program
# T1 sequence (P35462 whole entry): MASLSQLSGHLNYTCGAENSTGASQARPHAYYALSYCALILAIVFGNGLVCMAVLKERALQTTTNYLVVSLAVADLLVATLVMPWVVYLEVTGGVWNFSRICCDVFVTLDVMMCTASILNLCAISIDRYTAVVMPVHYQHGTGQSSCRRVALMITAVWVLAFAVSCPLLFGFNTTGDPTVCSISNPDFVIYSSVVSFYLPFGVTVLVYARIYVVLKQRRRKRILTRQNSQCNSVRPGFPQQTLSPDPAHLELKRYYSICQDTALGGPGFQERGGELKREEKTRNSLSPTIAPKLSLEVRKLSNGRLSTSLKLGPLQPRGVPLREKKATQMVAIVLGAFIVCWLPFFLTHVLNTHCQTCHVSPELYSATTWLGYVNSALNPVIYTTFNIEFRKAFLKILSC
# H2 histamine receptor = molecular target: T2, H2 histamine receptor (Homo sapiens, UniProt P25021); assay: as above; conditions: read-out: inhibition of binding at H2 histamine receptor
# T2 construct: NIMH Psychoactive Drug Screening program
# T2 sequence (P25021 whole entry): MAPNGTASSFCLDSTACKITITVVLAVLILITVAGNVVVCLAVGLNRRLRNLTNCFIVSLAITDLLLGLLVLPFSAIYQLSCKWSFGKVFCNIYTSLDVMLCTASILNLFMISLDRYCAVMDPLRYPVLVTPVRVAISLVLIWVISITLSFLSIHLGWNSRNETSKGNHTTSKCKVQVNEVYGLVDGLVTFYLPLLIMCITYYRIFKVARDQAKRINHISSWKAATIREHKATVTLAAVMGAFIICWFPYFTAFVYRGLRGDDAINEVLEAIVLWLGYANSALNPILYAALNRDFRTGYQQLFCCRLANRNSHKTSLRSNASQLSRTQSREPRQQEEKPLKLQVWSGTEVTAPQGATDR
# [5] = system: mice, LAD ligation ischemia/reperfusion; assay: Myocardial ischemia/reperfusion (LAD ligation), echocardiography; format: in vivo, mouse; conditions: 2 mg/kg/day s.c. minipump 3 days at reperfusion after 60 min LAD occlusion, 2 weeks or 4 weeks post-I/R, vs vehicle
# mP2X4R = molecular target: T3, mP2X4R (Mus musculus, UniProt Q9JJX6); conditions: compared with hP2X4R; cited from earlier work
# T3 sequence (Q9JJX6 1-388): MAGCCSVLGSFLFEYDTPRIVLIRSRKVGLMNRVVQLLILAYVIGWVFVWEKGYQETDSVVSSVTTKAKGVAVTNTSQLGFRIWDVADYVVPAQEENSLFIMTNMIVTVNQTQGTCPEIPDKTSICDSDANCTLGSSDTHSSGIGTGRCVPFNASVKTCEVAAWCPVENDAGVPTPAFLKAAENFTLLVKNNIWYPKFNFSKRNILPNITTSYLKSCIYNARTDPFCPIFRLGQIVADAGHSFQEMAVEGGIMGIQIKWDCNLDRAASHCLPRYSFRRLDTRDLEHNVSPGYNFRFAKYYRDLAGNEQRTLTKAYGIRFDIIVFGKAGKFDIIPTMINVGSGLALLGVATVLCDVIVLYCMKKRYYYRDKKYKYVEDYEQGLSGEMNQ
# mouse = conditions: cited from earlier work
# hP2X2/3R = molecular target: T4, hP2X2/3R (Homo sapiens, UniProt P56373+Q9UBL9); assay: cell-based; format: cell-based
# T4 construct: expressed in transfected cells; host or cells: CHO-K1
# T4 sequence (Q9UBL9 1-471): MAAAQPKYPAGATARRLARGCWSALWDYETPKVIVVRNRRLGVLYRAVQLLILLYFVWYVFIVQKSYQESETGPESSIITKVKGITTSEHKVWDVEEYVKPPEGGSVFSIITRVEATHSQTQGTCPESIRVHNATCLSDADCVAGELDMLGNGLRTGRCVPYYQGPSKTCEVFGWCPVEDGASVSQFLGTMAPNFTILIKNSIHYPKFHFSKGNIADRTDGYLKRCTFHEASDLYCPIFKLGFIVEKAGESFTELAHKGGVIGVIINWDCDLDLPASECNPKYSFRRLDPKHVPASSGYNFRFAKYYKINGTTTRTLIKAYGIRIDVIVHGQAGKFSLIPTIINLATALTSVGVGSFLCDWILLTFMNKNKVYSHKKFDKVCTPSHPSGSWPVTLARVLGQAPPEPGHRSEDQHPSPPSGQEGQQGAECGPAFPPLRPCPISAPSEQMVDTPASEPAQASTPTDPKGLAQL
# T4 sequence (P56373 1-397): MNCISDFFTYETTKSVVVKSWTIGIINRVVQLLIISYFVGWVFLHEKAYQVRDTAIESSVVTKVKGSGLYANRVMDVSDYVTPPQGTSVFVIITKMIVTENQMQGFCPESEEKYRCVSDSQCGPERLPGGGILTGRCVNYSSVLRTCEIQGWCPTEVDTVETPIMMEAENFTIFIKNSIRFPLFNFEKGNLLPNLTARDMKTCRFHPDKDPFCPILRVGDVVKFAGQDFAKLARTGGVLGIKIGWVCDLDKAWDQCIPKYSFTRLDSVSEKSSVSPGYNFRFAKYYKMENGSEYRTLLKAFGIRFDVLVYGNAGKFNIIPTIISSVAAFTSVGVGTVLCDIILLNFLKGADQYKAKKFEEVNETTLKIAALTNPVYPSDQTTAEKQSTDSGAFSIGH
# hP2X3R = molecular target: T5, hP2X3R (Homo sapiens, UniProt P56373); assay: cell-based; format: cell-based
# T5 construct: expressed in transfected cells; host or cells: CHO-K1
# T5 sequence (P56373 1-397): T4 sequence (P56373 1-397)
# hP2X1R = molecular target: T6, hP2X1R (Homo sapiens, UniProt P51575); assay: cell-based
# T6 construct: expressed in transfected cells; host or cells: CHO-K1
# T6 sequence (P51575 1-399): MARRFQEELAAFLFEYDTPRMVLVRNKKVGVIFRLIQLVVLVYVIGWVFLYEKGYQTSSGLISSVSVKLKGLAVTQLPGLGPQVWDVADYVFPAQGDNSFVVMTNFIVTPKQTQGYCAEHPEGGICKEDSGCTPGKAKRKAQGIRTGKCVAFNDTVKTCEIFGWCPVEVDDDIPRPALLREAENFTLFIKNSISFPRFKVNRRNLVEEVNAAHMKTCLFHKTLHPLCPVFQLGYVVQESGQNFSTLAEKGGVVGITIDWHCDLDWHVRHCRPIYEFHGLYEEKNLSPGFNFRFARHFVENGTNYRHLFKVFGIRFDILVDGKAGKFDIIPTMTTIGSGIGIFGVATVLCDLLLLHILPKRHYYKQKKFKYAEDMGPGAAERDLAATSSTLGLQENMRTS
# hP2X4R = molecular target: T7, hP2X4R (Homo sapiens, UniProt Q99571); assay: cell-based; format: cell-based
# T7 construct: expressed in transfected cells; host or cells: HEK-293
# T7 sequence (Q99571 1-388): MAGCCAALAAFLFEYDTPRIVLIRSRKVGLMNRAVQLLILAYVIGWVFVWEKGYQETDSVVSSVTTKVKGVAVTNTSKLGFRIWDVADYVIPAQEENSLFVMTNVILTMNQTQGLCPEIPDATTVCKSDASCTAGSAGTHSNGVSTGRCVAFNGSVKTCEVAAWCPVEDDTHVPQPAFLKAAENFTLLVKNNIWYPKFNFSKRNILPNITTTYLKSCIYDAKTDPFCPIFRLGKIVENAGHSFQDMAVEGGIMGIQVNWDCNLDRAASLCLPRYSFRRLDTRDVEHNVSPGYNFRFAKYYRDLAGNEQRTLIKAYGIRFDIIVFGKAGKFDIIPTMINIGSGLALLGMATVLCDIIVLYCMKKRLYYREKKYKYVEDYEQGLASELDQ
compound,measurement,setting,value
"O=C1CN=C(c2cccc(Br)c2)c2oc3ccccc3c2N1 [Compound 5-BDBD, 5-(3-bromophenyl)-1,3-dihydro-2H-benzofuro[3,2-e]-1,4-diazepin-2-one]",stroke infarct size,[1],reduced stroke infarct size
"Cc1ccc2c3c(ccc2c1)N(c1cccc(-c2noc(=S)[nH]2)c1)C(=O)CC(=O)N3 [Compound 21c, 9-Methyl-5-(3-(5-thioxo-4,5-dihydro-1,2,4-oxadiazol-3-yl)phenyl)-1,5-dihydro-2H-naphtho[1,2-b][1,4]diazepine-2,4(3H)-dione]",cortical infarct volume alone,[2]; 5 mg/kg/day,not statistically significant
same,striatal infarct volume alone,[2]; 5 mg/kg/day,not statistically significant
same,total hemispheric infarct volume,[2]; 5 mg/kg/day,moderate but significant decrease; also recorded: reduced total hemispheric infarct volume
same,"off-target interactions at 45 receptors, channels and transporters",[3],no significant interactions
"O=C1CC(=O)N(c2cccc(-c3noc(=S)[nH]3)c2)c2cc(Br)c3ccccc3c2N1 [Compound 21d, 7-Bromo-5-(3-(5-thioxo-4,5-dihydro-1,2,4-oxadiazol-3-yl)phenyl)-1,5-dihydro-2H-naphtho[1,2-b][1,4]diazepine-2,4(3H)-dione triethylamine salt]","off-target interactions at 45 receptors, channels and transporters",[3],no significant interactions
"O=C1CC(=O)N(c2ccnc(-c3noc(=S)[nH]3)c2)c2ccc3ccccc3c2N1 [Compound 21u, 5-(2-(5-Thioxo-4,5-dihydro-1,2,4-oxadiazol-3-yl)pyridin-4-yl)-1,5-dihydro-2H-naphtho[1,2-b][1,4]diazepine-2,4(3H)-dione triethylamine salt]",cortical infarct volume,[2],significantly reduced
same,striatal infarct volume,[2],no statistically significant decrease
same,total hemispheric infarct volume,[2],significantly reduced
same,neuroprotection based on total hemispheric infarct volume size,[2]; 3 mg/kg,significant neuroprotection
same,"learning and memory, NORT",[4],significant retention of memory; also recorded: reached to statistical significance
same,inhibition at 10 µM,D3 dopamine receptor,74 ± 10%
same,inhibition at 10 µM,H2 histamine receptor,89 ± 4%
same,decline in fractional shortening (FS),[5]; listed as MRS 4719,less than those in vehicle-treated mice
same,decline in left ventricular ejection fraction (EF),[5]; listed as MRS 4719,less than those in vehicle-treated mice
same,decline in fractional shortening (FS),[5]; listed as MRS4719,lesser degree of decline
same,decline in left ventricular ejection fraction (EF),[5]; listed as MRS4719,lesser degree of decline
"O=C1CC(=O)N(c2cccc(-c3noc(=S)[nH]3)c2)c2ccc3ccccc3c2N1.[Na] [Compound 22a, 5-(3-(5-Thioxo-4,5-dihydro-1,2,4-oxadiazol-3-yl)phenyl)-1,5-dihydro-2H-naphtho[1,2-b][1,4]diazepine-2,4(3H)-dione sodium salt]",potency in blocking mP2X4R effects in vitro,mP2X4R,as potent in blocking mP2X4R effects in vitro as at hP2X4R
same,"off-target interactions at 45 receptors, channels and transporters",[3],no significant interactions
same,in vivo efficacy in the mouse,mouse,considerable in vivo efficacy
"CCN(CC)CC.O=C1CC(=O)N(c2cccc(-c3noc(=S)[nH]3)c2)c2cc(-c3ccccc3)c3ccccc3c2N1 [Compound 211, 7-Phenyl-5-(3-(5-thioxo-4,5-dihydro-1,2,4-oxadiazol-3-yl)phenyl)-1,5-dihydro-2H-naphtho[1,2-b][1,4]diazepine-2,4(3H)-dione triethylamine salt]",hP2X2/3R % inhib.,hP2X2/3R,10%
same,hP2X3R % inhib.,hP2X3R,11%
same,hP2X1R % inhib.,hP2X1R,14%
same,IC50,hP2X4R,20.7 µM
